Assay [1] relates to Cyberlindnera jadinii. Description: Antifungal activity against Candida utilis ATCC9950 assessed as growth inhibition incubated at 35 degC for 24 hrs by micro broth dilution method. The class given is functional. Particulars: Williopsis jadinii, ATCC9950, 24 h.
For assay [2], the system named is Staphylococcus aureus. Description: Antibacterial activity against methicillin resistant Staphylococcus aureus N315 assessed as growth inhibition incubated at 37 degC for 24 hrs by micro broth dilution method. It counts as functional. The settings on record: N315, 24 h.
The subject of assay [3] is Micrococcus luteus. In words: Antibacterial activity against Micrococcus luteus ATCC4698 assessed as growth inhibition incubated at 37 degC for 24 hrs by micro broth dilution method. It counts as functional. Particulars: ATCC4698, 24 h.
The subject of assay [4] is Bacillus subtilis. In words: Antibacterial activity against Bacillus subtilis ATCC6633 assessed as growth inhibition incubated at 37 degC for 24 hrs by micro broth dilution method. The class given is functional. The settings on record: ATCC6633, 24 h. On the technique in general: Dilution methods test growth across graded concentrations, often in twofold steps.
The test system of assay [5] is Saccharomyces cerevisiae. In words: Antifungal activity against Saccharomyces cerevisiae ATCC9763 assessed as growth inhibition incubated at 35 degC for 24 hrs by micro broth dilution method. The class given is functional. The settings on record: ATCC9763, 24 h.
Assay [6] has as its system Candida albicans. In words: Antifungal activity against Candida albicans ATCC10231 assessed as growth inhibition incubated at 35 degC for 24 hrs by micro broth dilution method. The class given is functional. The settings on record: ATCC10231, 24 h.
Assay [7] has as its system Staphylococcus aureus. Description: Binding affinity to methicillin-resistant Staphylococcus aureus DNA assessed as induction of DNA intercalation by measuring as 1:1 compound-DNA complex formation in presence of Cu2+ ions by fluorescence spectroscopy.
The test system of assay [8] is Escherichia coli. Description: Antibacterial activity against Escherichia coli JM109 assessed as growth inhibition incubated at 37 degC for 24 hrs by micro broth dilution method. The class given is functional. Particulars: JM109, 24 h.
A short description of assay [9]: Antibacterial activity against Eberthella typhosa ATCC14028 assessed as growth inhibition incubated at 37 degC for 24 hrs by micro broth dilution method. The class given is functional. The settings on record: ATCC14028, 24 h.
In assay [10] the test system is Aspergillus flavus. In words: Antifungal activity against Aspergillus flavus ATCC204304 assessed as growth inhibition incubated at 35 degC for 24 hrs by micro broth dilution method. The settings on record: ATCC204304, 24 h. The class given is functional.
Assay [11] relates to Staphylococcus aureus. Description: Antibacterial activity against Staphylococcus aureus ATCC25923 assessed as growth inhibition incubated at 37 degC for 24 hrs by micro broth dilution method. The settings on record: ATCC25923, 24 h. It counts as functional.
In assay [12] the test system is Pseudomonas aeruginosa. In words: Potency index, ratio of clinafloxacin MIC to compound MIC for Pseudomonas aeruginosa ATCC27853. The class given is functional.
The nature of assay [13]: Binding affinity to Cu2+ ion assessed as 1:1 compound-Cu2+ complex formation by fluorescence spectroscopy.
A short description of assay [14]: Antifungal activity against Candida mycoderma ATCC9888 assessed as growth inhibition incubated at 35 degC for 24 hrs by micro broth dilution method. The class given is functional. Particulars: Kregervanrija fluxuum.
The test system of assay [15] is Pseudomonas aeruginosa. Description: Antibacterial activity against Pseudomonas aeruginosa ATCC27853 assessed as growth inhibition incubated at 37 degC for 24 hrs by micro broth dilution method. It counts as functional. The settings on record: ATCC27853, 24 h.
In assay [16] the test system is Pseudomonas aeruginosa. Description: Potency index, ratio of chloramphenicol MIC to compound MIC for Pseudomonas aeruginosa ATCC27853. It counts as functional.
Assay [17] relates to Staphylococcus aureus. Description: Binding affinity to methicillin-resistant Staphylococcus aureus DNA assessed as induction of DNA intercalation by UV-visible spectroscopy.
The subject of assay [18] is Staphylococcus aureus. In words: Binding affinity to methicillin-resistant Staphylococcus aureus DNA assessed as induction of DNA intercalation in presence of potassium iodide by fluorescence spectroscopy based Stern-Volmer plot.
The nature of assay [19]: Antibacterial activity against Bacillus proteus ATCC13315 assessed as growth inhibition incubated at 37 degC for 24 hrs by micro broth dilution method. Particulars: ATCC13315, 24 h. The class given is functional.

As a reminder, the MIC80 is the lowest concentration that inhibits either 80% of growth or 80% of the strains tested, depending on the study. As usually defined, the MIC is the lowest concentration that inhibits growth of the organism.

≈ marks a conversion by molar mass, not a printed value. Calls of active or inactive are those of the source. The calls are words filed in the database; no cut-off is given here.

Take `Cn1ccnc1SCC(O)CNC1CCN(c2c(F)cc3c(=O)c(C(=O)O)cn(C4CC4)c3c2Cl)C1` (configuration not stated): the MIC80 was 32 µg/mL (≈ 59.7 µM) in assay [1]; 16 µg/mL (≈ 29.8 µM) in [5]; 0.5 µg/mL (≈ 0.933 µM) in assay [6]; 32 µg/mL (≈ 59.7 µM) in assay [10]; 1 µg/mL (≈ 1.87 µM) in [14]. Further, the MIC came to 0.25 µg/mL (≈ 0.466 µM) in assay [2]; 0.5 µg/mL (≈ 0.933 µM) in [3]; 0.5 µg/mL (≈ 0.933 µM) in assay [4]; 1 µg/mL (≈ 1.87 µM) in assay [8]; 0.5 µg/mL (≈ 0.933 µM) in [9]; 0.5 µg/mL (≈ 0.933 µM) in assay [11]. The figures for the minimum inhibitory concentration (MIC) in assay [15] and in assay [19] were 0.25 µg/mL (≈ 0.466 µM) and 0.5 µg/mL (≈ 0.933 µM), respectively. Besides, the result in assay [7], in assay [13] and in [18] was Active. Moreover, the Ratio in assay [12] stood at 4; in [16], 64. In [17], the Activity entry is “Dose-dependent effect”.

Turning to `O=C(O)c1cn(C2CC2)c2c(Cl)c(N3CCC(NCC(O)CSc4ncn(Cc5ccc(Cl)c(Cl)c5)n4)C3)c(F)cc2c1=O` (configuration not stated), the MIC80 came to 8 µg/mL (≈ 11.7 µM) in assay [1]; 16 µg/mL (≈ 23.5 µM) in assay [5]; 0.5 µg/mL (≈ 0.733 µM) in [6]; 8 µg/mL (≈ 11.7 µM) in assay [10]; 1 µg/mL (≈ 1.47 µM) in assay [14]. Further, the MIC in [2] is 0.5 µg/mL (≈ 0.733 µM); in assay [3] it was 0.5 µg/mL (≈ 0.733 µM); in assay [4], 0.5 µg/mL (≈ 0.733 µM); in assay [8], 1 µg/mL (≈ 1.47 µM); in assay [9] it was 0.5 µg/mL (≈ 0.733 µM); in assay [11], 0.5 µg/mL (≈ 0.733 µM). Also, the MIC in assay [15] and in assay [19] was 0.5 µg/mL (≈ 0.733 µM) in each case.

Turning to `CCn1cc(C(=O)O)c(=O)c2cc(F)c(N3CCN(CC(O)CSc4ncn(Cc5ccc(Cl)c(Cl)c5)n4)CC3)cc21` (configuration not stated), the MIC80 in [1] is 128 µg/mL (≈ 201 µM); in assay [5] it was 32 µg/mL (≈ 50.4 µM); in assay [6], 64 µg/mL (≈ 101 µM); in [10] it was 16 µg/mL (≈ 25.2 µM); in [14] it was 128 µg/mL (≈ 201 µM). Moreover, the MIC in assay [2] turned out to be 8 µg/mL (≈ 12.6 µM); in assay [3], 32 µg/mL (≈ 50.4 µM); in assay [4], 128 µg/mL (≈ 201 µM); in [8], 16 µg/mL (≈ 25.2 µM); in assay [9] it was 64 µg/mL (≈ 101 µM); in [11], 4 µg/mL (≈ 6.29 µM). The MIC in assay [15] was 64 µg/mL (≈ 101 µM); in assay [19], 8 µg/mL (≈ 12.6 µM).

With `O=C(O)c1cn(C2CC2)c2c(Cl)c(N3CCC(NCC(O)Cn4cnc(S)n4)C3)c(F)cc2c1=O` (configuration not stated), the MIC80 in assay [1] is 4 µg/mL (≈ 7.65 µM); in [5], 8 µg/mL (≈ 15.3 µM); in assay [6] it was 2 µg/mL (≈ 3.82 µM); in assay [10], 8 µg/mL (≈ 15.3 µM); in assay [14], 8 µg/mL (≈ 15.3 µM). Moreover, the MIC came out at 4 µg/mL (≈ 7.65 µM) in [2]; 2 µg/mL (≈ 3.82 µM) in assay [3]; 0.5 µg/mL (≈ 0.956 µM) in assay [4]; 1 µg/mL (≈ 1.91 µM) in assay [8]; 0.5 µg/mL (≈ 0.956 µM) in assay [9]; 0.5 µg/mL (≈ 0.956 µM) in assay [11]. For the same compound, the MIC in assay [15] is 4 µg/mL (≈ 7.65 µM); in [19], 1 µg/mL (≈ 1.91 µM).

`CCn1cc(C(=O)O)c(=O)c2cc(F)c(N3CCN(CC(O)Cn4cnc(S)n4)CC3)cc21` (configuration not stated): the MIC80 worked out at 64 µg/mL (≈ 134 µM) in assay [1]; 128 µg/mL (≈ 269 µM) in [5]; 128 µg/mL (≈ 269 µM) in assay [6]; 512 µg/mL (≈ 1070 µM) in assay [10]; 128 µg/mL (≈ 269 µM) in [14]. Further, the MIC worked out at 64 µg/mL (≈ 134 µM) in assay [2]; 64 µg/mL (≈ 134 µM) in assay [3]; 128 µg/mL (≈ 269 µM) in [4]; 64 µg/mL (≈ 134 µM) in [8]; 64 µg/mL (≈ 134 µM) in [9]; 128 µg/mL (≈ 269 µM) in assay [11]. Moreover, the minimum inhibitory concentration (MIC) in assay [15] amounted to 64 µg/mL (≈ 134 µM); in assay [19], 128 µg/mL (≈ 269 µM).

Regarding `Sc1ncn(Cc2ccc(Cl)cc2Cl)n1`, the MIC80 in [1] is 512 µg/mL (≈ 1970 µM); in [5], 512 µg/mL (≈ 1970 µM); in [6], 512 µg/mL (≈ 1970 µM); in assay [10], 256 µg/mL (≈ 984 µM); in assay [14] it was 128 µg/mL (≈ 492 µM). Also, the MIC in assay [2] came to 128 µg/mL (≈ 492 µM); in [3] it was 128 µg/mL (≈ 492 µM); in assay [4], 512 µg/mL (≈ 1970 µM); in assay [8], 256 µg/mL (≈ 984 µM); in assay [9], 256 µg/mL (≈ 984 µM); in [11], 512 µg/mL (≈ 1970 µM). The figures for the MIC in assay [15] and in assay [19] were 256 µg/mL (≈ 984 µM) and 512 µg/mL (≈ 1970 µM), respectively.

Turning to `CCn1cc(C(=O)O)c(=O)c2cc(F)c(N3CCN(CC(O)CSc4nccn4C)CC3)cc21` (configuration not stated), the MIC80 in assay [1] worked out at 64 µg/mL (≈ 131 µM); in [5], 128 µg/mL (≈ 261 µM); in assay [6], 16 µg/mL (≈ 32.7 µM); in [10] it was 256 µg/mL (≈ 523 µM); in assay [14], 64 µg/mL (≈ 131 µM). Also, the MIC in assay [2] was found to be 64 µg/mL (≈ 131 µM); in assay [3], 32 µg/mL (≈ 65.4 µM); in [4], 16 µg/mL (≈ 32.7 µM); in assay [8], 8 µg/mL (≈ 16.3 µM); in [9] it was 16 µg/mL (≈ 32.7 µM); in [11], 16 µg/mL (≈ 32.7 µM). Besides, the MIC in [15] and in [19] was 64 µg/mL (≈ 131 µM) throughout.

The values above are taken from ChEMBL document CHEMBL3739277, “Design, synthesis, and antibacterial evaluation of novel azolylthioether quinolones as MRSA DNA intercalators” (2015).
